Experiment [1] has as its system TGF-β-stimulated SMAD3 phosphorylation in BEAS-2B cells. The experiment in a line: Cellular ALK5 potency assay, inhibition of TGF-β stimulated pSMAD3 formation in BEAS-2B cells. Format: cell-based. The settings on record: Homo sapiens, inhibition of TGF-β (10 ng/mL) stimulated pSMAD3 formation, 1 hour compound incubation, read-out: BEAS2B pIC50 (converted). In a few lines:
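Phospho-SMAD3 was quantified by AlphaLISA in lysates of human lung epithelial BEAS-2B cells. Compound was added 1 h (37 °C, HEPES/BSA-supplemented HBSS) before a 30 min challenge with 10 ng/mL TGF-β. Values are pIC50 relative to stimulated cells without compound.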

The target in experiment [2] is T1, recombinant human ALK5 (TGF-βR1) protein (Homo sapiens, UniProt P36897).
T1 construct: purchased Life Technologies PR9075A
T1 sequence (P36897 34-503): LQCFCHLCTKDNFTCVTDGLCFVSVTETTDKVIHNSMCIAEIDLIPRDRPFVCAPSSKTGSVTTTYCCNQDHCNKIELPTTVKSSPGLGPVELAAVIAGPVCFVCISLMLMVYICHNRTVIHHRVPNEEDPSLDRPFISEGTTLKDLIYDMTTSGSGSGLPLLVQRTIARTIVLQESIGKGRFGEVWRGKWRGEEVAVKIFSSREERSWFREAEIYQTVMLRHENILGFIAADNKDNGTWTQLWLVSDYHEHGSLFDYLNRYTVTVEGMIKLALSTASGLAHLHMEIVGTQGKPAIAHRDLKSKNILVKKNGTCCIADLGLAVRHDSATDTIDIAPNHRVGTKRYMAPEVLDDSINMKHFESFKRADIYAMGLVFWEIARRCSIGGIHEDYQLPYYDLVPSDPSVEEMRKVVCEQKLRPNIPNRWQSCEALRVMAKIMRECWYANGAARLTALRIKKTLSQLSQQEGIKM
The experiment in a line: Biochemical ALK5 (TGF-βR1) assay to measure pKi (LANCE Ultra ULight kinase assay). Conditions: apparent pKi, converted from pIC50 using the Cheng-Prusoff equation. In a few lines: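 TR-FRET kinase format: compound dose range 10 μM–25 pM equilibrated 60 min with human ALK5 and ULight-labelled topoisomerase 2α peptide in HEPES/MgCl2 buffer pH 7.5 with DTT. Reaction started with ATP (125 μM stock, 5× final), 60 min at 37° C, stopped with EDTA/Eu-anti-phospho antibody; pKi derived from pIC50 via Cheng-Prusoff.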

`CC1(C)CCCN1CCNc1cnc2ccc(-c3c[nH]nc3-c3ccc(F)c(F)c3)nc2c1` [Compound 8-2, 6-[3-(3,4-difluorophenyl)-1H-pyrazol-4-yl]-N-[2-(2,2-dimethylpyrrolidin-1-yl)ethyl]-1,5-naphthyridin-3-amine]: the IC50 in experiment [1] was 25.1 to 158 nM. In experiment [2], the Ki was 3.98 to 31.6 nM.
For `CN1CCN(C2CCN(c3cnc4ccc(-c5c[nH]nc5-c5ccc(F)c(F)c5)nc4c3)CC2)CC1` [Compound 8-3, 2-(3-(3,4-difluorophenyl)-1H-pyrazol-4-yl)-7-(4-(4-methylpiperazin-1-yl)piperidin-1-yl)-1,5-naphthyridine] the same measures were 25.1 to 158 nM and 0.398 to 3.16 nM.
As for `Fc1ccc(-c2n[nH]cc2-c2ccc3ncc(N4CCNCC4)cc3n2)cc1F` [Compound 8-4, 2-[3-(3,4-difluorophenyl)-1H-pyrazol-4-yl]-7-piperazin-1-yl-1,5-naphthyridine], the IC50 in experiment [1] was 25.1 to 158 nM. Also, in experiment [2], the Ki is 3.98 to 31.6 nM.
The corresponding values for `CNC1CCN(c2cnc3ccc(-c4c[nH]nc4-c4ccc(F)c(F)c4)nc3c2)CC1` [Compound 8-6, 1-[6-[3-(3,4-difluorophenyl)-1H-pyrazol-4-yl]-1,5-naphthyridin-3-yl]-N-methyl-piperidin-4-amine] are 25.1 to 158 nM and 0.398 to 3.16 nM.
The corresponding values for `CN(C)C1CCN(c2cnc3ccc(-c4c[nH]nc4-c4ccc(F)c(F)c4)nc3c2)CC1` [Compound 8-7, 1-[6-[3-(3,4-difluorophenyl)-1H-pyrazol-4-yl]-1,5-naphthyridin-3-yl]-N,N-dimethyl-piperidin-4-amine] are 25.1 to 158 nM and 0.398 to 3.16 nM.
The corresponding values for `OCCN1CCN(c2cnc3ccc(-c4c[nH]nc4-c4ccc(F)c(F)c4)nc3c2)CC1` [Compound 8-8, 2-[4-[6-[3-(3,4-difluorophenyl)-1H-pyrazol-4-yl]-1,5-naphthyridin-3-yl]piperazin-1-yl]ethanol] are 25.1 to 158 nM and 3.98 to 31.6 nM.
As for `NC1CCN(c2cnc3ccc(-c4c[nH]nc4-c4ccc(F)c(F)c4)nc3c2)C1` (stereo not shown) [Compound 8-9, 1-[6-[3-(3,4-difluorophenyl)-1H-pyrazol-4-yl]-1,5-naphthyridin-3-yl]pyrrolidin-3-amine], the IC50 in experiment [1] was 25.1 to 158 nM. Also, the Ki in experiment [2] is 0.398 to 3.16 nM.
Regarding `CC(C)N1CCN(c2cnc3ccc(-c4c[nH]nc4-c4ccc(F)c(F)c4)nc3c2)CC1` [Compound 8-10, 2-[3-(3,4-difluorophenyl)-1H-pyrazol-4-yl]-7-(4-isopropylpiperazin-1-yl)-1,5-naphthyridine], the IC50 in experiment [1] was 25.1 to 158 nM. For the same molecule, the Ki in experiment [2] was 0.398 to 3.16 nM.
The corresponding values for `Fc1ccc(-c2n[nH]cc2-c2ccc3ncc(N4CCC(N5CCCC5)CC4)cc3n2)cc1F` [Compound 8-11, 2-[3-(3,4-difluorophenyl)-1H-pyrazol-4-yl]-7-(4-pyrrolidin-1-yl-1-piperidyl)-1,5-naphthyridine] are 25.1 to 158 nM and 0.398 to 3.16 nM.
For `CNCCn1cc(-c2cnc3ccc(-c4c[nH]nc4-c4ccc(F)c(F)c4)nc3c2)cn1` [Compound 8-12, 2-(4-(6-(3-(3,4-difluorophenyl)-1H-pyrazol-4-yl)-1,5-naphthyridin-3-yl)-1H-pyrazol-1-yl)-N-methylethan-1-amine] the same measures were at most 20 nM and at most 0.0316 nM.
The corresponding values for `Fc1ccc(-c2n[nH]cc2-c2ccc3ncc(-c4cn[nH]c4)cc3n2)cc1F` [Compound 8-13, 2-[3-(3,4-difluorophenyl)-1H-pyrazol-4-yl]-7-(1H-pyrazol-4-yl)-1,5-naphthyridine] are at most 20 nM and 0.398 to 3.16 nM.
Consider `CNCCn1ccc(-c2cnc3ccc(-c4c[nH]nc4-c4ccc(F)c(F)c4)nc3c2)n1` [Compound 8-14, 2-[3-[6-[3-(3,4-difluorophenyl)-1H-pyrazol-4-yl]-1,5-naphthyridin-3-yl]pyrazol-1-yl]-N-methyl-ethanamine], for which the IC50 in experiment [1] is 25.1 to 158 nM. Moreover, the Ki in experiment [2] was 0.398 to 3.16 nM.
The corresponding values for `Fc1ccc(-c2n[nH]cc2-c2ccc3ncc(-c4cnn(CC5CNC5)c4)cc3n2)cc1F` [Compound 8-15, 7-[1-(azetidin-3-ylmethyl)pyrazol-4-yl]-2-[3-(3,4-difluorophenyl)-1H-pyrazol-4-yl]-1,5-naphthyridine] are 25.1 to 158 nM and at most 0.0316 nM.
With `Cn1cccc(-c2cnc3ccc(-c4c[nH]nc4-c4ccc(F)c(F)c4)nc3c2)c1=O` [Compound 8-16, 3-[6-[3-(3,4-difluorophenyl)-1H-pyrazol-4-yl]-1,5-naphthyridin-3-yl]-1-methyl-pyridin-2-one], the IC50 in experiment [1] is 25.1 to 158 nM. In addition, in experiment [2], the Ki is 3.98 to 31.6 nM.
The corresponding values for `NCCn1cc(-c2cnc3ccc(-c4c[nH]nc4-c4ccc(F)c(F)c4)nc3c2)cn1` [Compound 8-17, 2-[4-[6-[3-(3,4-difluorophenyl)-1H-pyrazol-4-yl]-1,5-naphthyridin-3-yl]pyrazol-1-yl]ethanamine] are at most 20 nM and at most 0.0316 nM.
For `O=C(O)Cn1cc(-c2cnc3ccc(-c4c[nH]nc4-c4ccc(F)c(F)c4)nc3c2)cn1` [Compound 8-18, 2-[4-[6-[3-(3,4-difluorophenyl)-1H-pyrazol-4-yl]-1,5-naphthyridin-3-yl]pyrazol-1-yl]acetic acid] the same measures were 25.1 to 158 nM and 0.398 to 3.16 nM.
The corresponding values for `NC1CC=C(c2cnc3ccc(-c4c[nH]nc4-c4ccc(F)c(F)c4)nc3c2)CC1` (stereo not shown) [Compound 8-19, 4-[6-[3-(3,4-difluorophenyl)-1H-pyrazol-4-yl]-1,5-naphthyridin-3-yl]cyclohex-3-en-1-amine] are at most 20 nM and 0.0398 to 0.316 nM.
`Fc1ccc(-c2n[nH]cc2-c2ccc3ncc(C4=CCNC4)cc3n2)cc1F` [Compound 8-20, 2-[3-(3,4-difluorophenyl)-1H-pyrazol-4-yl]-7-(2,5-dihydro-1H-pyrrol-3-yl)-1,5-naphthyridine]: the IC50 in experiment [1] is 25.1 to 158 nM. The Ki in experiment [2] was 0.398 to 3.16 nM.
Consider `OCCn1cc(-c2cnc3ccc(-c4c[nH]nc4-c4ccc(F)c(F)c4)nc3c2)cn1` [Compound 8-21, 2-(4-(6-(3-(3,4-difluorophenyl)-1H-pyrazol-4-yl)-1,5-naphthyridin-3-yl)-1H-pyrazol-1-yl)ethan-1-ol], for which the IC50 in experiment [1] is at most 20 nM. In experiment [2], the Ki was 0.0398 to 0.316 nM.
For `CN1CC=C(c2cnc3ccc(-c4c[nH]nc4-c4ccc(F)c(F)c4)nc3c2)C1` [Compound 8-22, 2-(3-(3,4-difluorophenyl)-1H-pyrazol-4-yl)-7-(1-methyl-2,5-dihydro-1H-pyrrol-3-yl)-1,5-naphthyridine] the same measures were 25.1 to 158 nM and 0.398 to 3.16 nM.
The corresponding values for `CC(C)N1CC=C(c2cnc3ccc(-c4c[nH]nc4-c4ccc(F)c(F)c4)nc3c2)C1` [Compound 8-23, 2-[3-(3,4-difluorophenyl)-1H-pyrazol-4-yl]-7-(1-isopropyl-2,5-dihydropyrrol-3-yl)-1,5-naphthyridine] are 25.1 to 158 nM and 0.398 to 3.16 nM.
Consider `CC(C)NC1CC=C(c2cnc3ccc(-c4c[nH]nc4-c4ccc(F)c(F)c4)nc3c2)CC1` (stereo not shown) [Compound 8-24, 4-(6-(3-(3,4-difluorophenyl)-1H-pyrazol-4-yl)-1,5-naphthyridin-3-yl)-N-isopropylcyclohex-3-en-1-amine], for which the IC50 in experiment [1] was at most 20 nM. In addition, the Ki in experiment [2] is at most 0.0316 nM.
The corresponding values for `CN(C)C1CC=C(c2cnc3ccc(-c4c[nH]nc4-c4ccc(F)c(F)c4)nc3c2)CC1` (stereo not shown) [Compound 8-25, 4-[6-[3-(3,4-difluorophenyl)-1H-pyrazol-4-yl]-1,5-naphthyridin-3-yl]-N,N-dimethyl-cyclohex-3-en-1-amine] are 25.1 to 158 nM and 0.0398 to 0.316 nM.
For `Fc1ccc(-c2n[nH]cc2-c2ccc3ncc(C4=CCC(NCc5ccccc5)CC4)cc3n2)cc1F` (stereo not shown) [Compound 8-26, N-benzyl-4-[6-[3-(3,4-difluorophenyl)-1H-pyrazol-4-yl]-1,5-naphthyridin-3-yl]cyclohex-3-en-1-amine] the same measures were 25.1 to 158 nM and 0.0398 to 0.316 nM.
For `CNCCn1cc(-c2cnc3ccc(-c4c[nH]nc4-c4ccc(F)c(F)c4)nc3c2)nn1` [Compound 8-27, 2-(4-(6-(3-(3,4-difluorophenyl)-1H-pyrazol-4-yl)-1,5-naphthyridin-3-yl)-1H-1,2,3-triazol-1-yl)-N-methylethan-1-amine] the same measures were 25.1 to 158 nM and 0.0398 to 0.316 nM.
On to `Fc1ccc(-c2[nH]cnc2-c2ccc3ncc(NCCN4CCNCC4)cc3n2)cc1F` [Compound 9-1, 6-(5-(3,4-difluorophenyl)-1H-imidazol-4-yl)-N-(2-(piperazin-1-yl)ethyl)-1,5-naphthyridin-3-amine], for which the IC50 in experiment [1] is 200 to 1260 nM. Moreover, the Ki in experiment [2] is 0.398 to 3.16 nM.

For the origin of these results see patent publication US11730720B2, “ALK5 inhibitors” (THERAVANCE BIOPHARMA R&D IP, LLC, priority 2018, dated 2023).
